Results as given in patent publication US11560529B2, “Galactarate based metal sequestration composition” (ZestBio, Inc., priority 2019, dated 2023).

Assays:
[1] = Calcium sequestration by titration with calcium chloride in presence of sodium oxalate until slight turbidity; assay type: physicochemical; details: 20° C.; for Calcium sequestration capacity, mg Ca^2+/g mixture: Table 4
Protocol: Salt mixtures of galactaric acid were prepared to the desired composition by mixing sodium galactarate with either sodium borate decahydrate or sodium aluminate to a final weight of 10 grams. In an alternative preparation, galactaric acid was mixed with either sodium borate decahydrate or sodium aluminate. The resulting mixture was dissolved in a stoichiometric solution of sodium hydroxide.
The efficacy of different mixtures of galactaric acid salts and oxyanion salts in sequestering calcium at 20° C. were tested. First, salt mixtures were dissolved in deionized water at 5 g/L. Sodium oxalate stock solution, prepared at 20 g/Land pH 10, was then added to the mixture solution to yield a final concentration of 1 g/L sodium oxalate. The pH was adjusted to 10 for mixtures containing borate as the oxyanion and to 11 for mixtures containing aluminate as the oxyanion with 1M sodium hydroxide or 1M hydrochloric acid. The resulting solutions were aliquoted to 50 mL and slowly titrated with stirring by addition of a 15 g/L anhydrous calcium chloride solution at a rate of 1 mL every 3 minutes until slight turbidity was observed, indicating saturation of calcium by the chelant mixture.
The effect of pH on calcium sequestration by mixtures of galactaric acid salts and oxyanion salts at room temperature was assayed. Mixtures of 70% disodium galactarate and 30% sodium aluminate and 60% disodium galactarate and 40% sodium borate decahydrate were prepared. The resulting mixtures were dissolved in deionized water at 5 g/L and the calcium sequestering capacity was determined, as described above, with the exception that the pH was adjusted to the indicated pH with either 1M sodium hydroxide or 1M hydrochloric acid.
The calcium chelating capacity of a variety of standard compounds and mixtures was determined for 5 g/L solutions dissolved in water, as described above. In all instances the temperature was 20° C. and except where noted, the pH of solution was adjusted to 10 before determination.

[2] = Qualitative solubility of sodium galactarate in water-based solutions; details: for solubility at 15 min / solubility at 50 min: 20 °C, thermodynamic from solid, 0.5 g in 50 mL, 20 C, stirring; for solubility at 15 min: Solubility after 15 min.; for solubility at 50 min: Solubility after 50 min.
Protocol: To characterize the solubility of sodium galactarate, 0.5M solutions of alkali salts and non-alkali base were prepared in deionized water. To 50 mL of each solution 0.5 g of sodium galactarate, was added at 20° C. with stirring.

[3] = pH 10, aqueous buffer, 0.5M NH4OH (pH 10)

O.O.O=C([O-])CN(CCN(CC(=O)O)CC(=O)O)CC(=O)[O-].[Na+].[Na+] [EDTA, Ethylenedinitrilo Tetraacetic Acid Disodium Salt Dihydrate]
Calcium sequestration capacity, mg Ca^2+/g mixture ([1]; pH 10, 5 g/L in water): 104 mg Ca^2+/g mixture

O=C([O-])CC[C@@H](C(=O)[O-])N(CC(=O)[O-])CC(=O)[O-].[Na+].[Na+].[Na+].[Na+] [GLDA, N,N-Dicarboxymethyl glutamic acid tetrasodium salt]
Calcium sequestration capacity, mg Ca^2+/g mixture ([1]; pH 10, 5 g/L in water): 80 mg Ca^2+/g mixture
Calcium sequestration capacity, mg Ca^2+/g mixture ([1]; pH 11, 5 g/L in water): 132 mg Ca^2+/g mixture

O=C([O-])CC(O)(CC(=O)[O-])C(=O)[O-].[Na+].[Na+].[Na+] [Trisodium citrate, trisodium citrate]
Calcium sequestration capacity, mg Ca^2+/g mixture ([1]; pH 10, 5 g/L in water): 32 mg Ca^2+/g mixture

O=C([O-])[C@@H](O)[C@H](O)[C@H](O)[C@@H](O)C(=O)[O-].[Na+].[Na+] [sodium galactarate]
Effect of lithium ions present in solution on dissolution ([2]; 20° C.): accelerated dissolution
Effect of sodium ions in solution (sodium chloride or sodium hydroxide) on dissolution ([2]; 20° C.): inhibited the dissolution
Solubility (in words) ([2]; 20° C.): soluble in water-based solutions and under basic conditions
solubility at 15 min ([2]; aqueous buffer, 0.5M LiCl): > 10000 µg/mL
solubility at 15 min ([2]; aqueous buffer, 0.5M NaOH): < 10000 µg/mL
solubility at 50 min ([2]; aqueous buffer, 0.5M LiCl): > 10000 µg/mL
solubility at 50 min ([2]; aqueous buffer, 0.5M NaOH): < 10000 µg/mL
solubility at 15 min [2, 3]: < 10000 µg/mL
solubility at 50 min [2, 3]: > 10000 µg/mL
solubility at 15 min ([2]; saline or isotonic, 0.5M NaCl): < 10000 µg/mL
solubility at 50 min ([2]; saline or isotonic, 0.5M NaCl): < 10000 µg/mL
solubility at 15 min ([2]; water, Water): < 10000 µg/mL
solubility at 50 min ([2]; water, Water): > 10000 µg/mL
Calcium sequestration, mg Ca^2+/g mixture ([1]; Table 2, no oxyanion salt, pH not stated, 5 g/L, 1 g/L sodium oxalate): 5 mg Ca^2+/g mixture
